IC50 data for 46 compounds are collected here from US20250026748A1, “N-(5-SUBSTITUTED-[(1,3,4-THIADIAZOLYL) OR (THIAZOLYL)])(SUBSTITUTED)CARBOXAMIDE COMPOUNDS AND USE THEREOF FOR INHIBITING HUMAN POLYMERASE THETA” (Repare Therapeutics Inc., priority 2021, published 2025).

In this test the target is PolQ ATPase enzyme (1-894) (Homo sapiens (Human), UniProt O75417). The test is described as follows: Polθ ATPase enzymatic assay (0.5 nM enzyme concentration), ADP-Glo. In kind it is biochemical. To be noted: average IC50; 0.5 nM PolQ ATPase enzyme (1-894). As to the method:
PolQ ATPase enzyme (1-894) at 0.5 nM is incubated with a 10-point concentration response of inhibitors for 15 min at rt in the following buffer: 50 mM Tris Cl pH 7.5, 10% glycerol, 5 mM DTT, 10 mM MgCl2, 0.1 mg/ml BSA. Following pre-incubation with inhibitors, DNA (Fork C) at 20 nM and ATP at 100 μM are added to start the reaction. Enzymatic reaction proceeds at rt for 180 min ATP consumption is measured using the ADP-Glo assay from Promega. Luminescence is read on the Envision and IC50 are determined using the variable slope 4-parameters equation.
Oligos are annealed by heating at 9500 for 5 min in the following buffer (10 mM Tris-HCl pH7.5, 50 mM NaCl, 1 mM EDTA) and cooled to rt. […]
Background: In ADP-Glo the light output rises with the ADP produced.

Usually IC50 stands for the concentration that gives 50% inhibition.

Chain of PolQ ATPase enzyme (1-894) (O75417 1-894): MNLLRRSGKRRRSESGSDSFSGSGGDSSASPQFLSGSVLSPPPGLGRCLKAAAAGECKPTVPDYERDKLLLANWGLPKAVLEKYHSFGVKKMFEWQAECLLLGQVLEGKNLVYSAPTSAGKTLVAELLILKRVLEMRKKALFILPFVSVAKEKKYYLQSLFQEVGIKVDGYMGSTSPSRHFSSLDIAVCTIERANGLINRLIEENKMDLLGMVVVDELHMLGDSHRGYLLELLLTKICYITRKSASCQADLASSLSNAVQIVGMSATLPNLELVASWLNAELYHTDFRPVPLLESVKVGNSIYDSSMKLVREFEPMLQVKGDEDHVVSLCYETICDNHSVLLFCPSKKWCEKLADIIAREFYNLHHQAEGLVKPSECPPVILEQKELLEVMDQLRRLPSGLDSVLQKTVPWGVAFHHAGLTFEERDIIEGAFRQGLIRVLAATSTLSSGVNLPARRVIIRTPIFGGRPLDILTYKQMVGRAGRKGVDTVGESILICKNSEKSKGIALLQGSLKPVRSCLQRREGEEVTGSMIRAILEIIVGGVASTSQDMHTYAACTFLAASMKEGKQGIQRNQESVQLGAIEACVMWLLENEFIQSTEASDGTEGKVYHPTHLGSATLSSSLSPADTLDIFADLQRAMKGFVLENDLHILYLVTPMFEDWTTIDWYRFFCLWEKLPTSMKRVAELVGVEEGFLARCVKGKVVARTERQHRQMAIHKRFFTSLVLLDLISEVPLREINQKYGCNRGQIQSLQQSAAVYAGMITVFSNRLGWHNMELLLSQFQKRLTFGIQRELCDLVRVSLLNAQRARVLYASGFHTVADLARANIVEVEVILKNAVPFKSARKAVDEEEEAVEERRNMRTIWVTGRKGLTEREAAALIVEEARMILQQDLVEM

In turn, `COc1cnc(C)cc1-c1cnccc1C(=O)Nc1nnc(C#Cc2cc(C)[nH]n2)s1` [Compound 85] displayed a 50% inhibitory concentration (IC50) of 1.1 nM.

The compound `COc1ccc(C(F)(F)F)cc1-c1cn2ncnc2cc1C(=O)Nc1nnc(C#Cc2cc(C)[nH]n2)s1` [Compound 86] registered a 50% inhibitory concentration (IC50) of 1.6 nM.

On to `COc1ccc(C(F)F)cc1-c1cn(CC(N)=O)c(=O)cc1C(=O)Nc1nnc(C#CC2CC2)s1` [Compound 87], for which the concentration for half-maximal inhibition (IC50) worked out at 0.36 nM. `COc1ncc(C(F)(F)F)cc1-c1cnccc1C(=O)Nc1nnc(C#Cc2cc(C)[nH]n2)s1` [Compound 88] had an IC50 of 2.4 nM. Next, `CNC(=O)Cn1cc(-c2cc(C(F)(F)F)cnc2OC)c(C(=O)Nc2nnc(C#CC3CC3)s2)cc1=O` [Compound 89]: 1.2 nM.

`COc1cnc(C(F)(F)F)cc1-c1cnccc1C(=O)Nc1nnc(C2CC2c2ccc(C#N)cc2)s1` (stereo not shown) [Compound 90] registered an IC50 of 0.8 nM. For the compound `COc1cnc(C(F)(F)F)cc1-c1cnccc1C(=O)Nc1nnc(C#CC2CC2)s1` [Compound 91], the IC50 stood at 2.3 nM. Next, `CNC(=O)Cn1cc(-c2cc(C(F)(F)F)ccc2OC)c(C(=O)Nc2nnc(C3CC3c3ccc(C#N)cc3)s2)cc1=O` (stereo not shown) [Compound 92]: 0.25 nM; `CNC(=O)Cn1cc(-c2cc(C(F)(F)F)ccc2OC)c(C(=O)Nc2nnc(C#CC3CC3)s2)cc1=O` [Compound 93]: 0.32 nM; `COc1ccc(C(F)(F)F)cc1-c1cn(CC(N)=O)c(=O)cc1C(=O)Nc1nnc(C#Cc2cc(C)[nH]n2)s1` [Compound 94]: less than 0.25 nM. To `COc1ccc(C(F)(F)F)cc1-c1cn(CC(N)=O)c(=O)cc1C(=O)Nc1nnc(C#CC2CC2)s1` [Compound 95] belongs less than 0.25 nM. Compound `COc1cnc(Cl)cc1-c1cn2ncnc2cc1C(=O)Nc1nnc(C#CC2CC2)s1` [Compound 96] came in with an IC50 of 2.6 nM. To `COc1cnc(Cl)cc1-c1cn2ncnc2cc1C(=O)Nc1nnc(C#Cc2cc(C)[nH]n2)s1` [Compound 97] belongs 2 nM. Next, `Cc1cc(C#Cc2nnc(NC(=O)c3cc(=O)n(C)cc3-c3cc(Cl)ncc3OC(F)F)s2)n[nH]1` [Compound 98]: 0.54 nM; `COc1cnc(Cl)cc1-c1cn(CC(=O)N(C)C)c(=O)cc1C(=O)Nc1nnc(C#CC2CC2)s1` [Compound 99]: 0.36 nM. Next, `COc1cnc(Cl)cc1-c1cnccc1C(=O)Nc1nnc(C#CC2CC23CC3)s1` (stereo not shown) [Compound 100]: less than 0.25 nM. `COc1ccc(F)cc1-c1cnccc1C(=O)Nc1nnc(C#Cc2cc(C#N)[nH]n2)s1` [Compound 101]: the IC50 was less than 0.25 nM. Next, `COc1ccc(C(F)(F)F)cc1-c1cn(C)c(=O)cc1C(=O)Nc1nnc(C#Cc2cc(C)[nH]n2)s1` [Compound 102]: 1.2 nM; `COc1cnc(Cl)cc1-c1cn(C)c(=O)cc1C(=O)Nc1nnc(C#Cc2cc(C)[nH]n2)s1` [Compound 103]: 1.2 nM. Regarding `CNC(=O)Cn1cc(-c2cc(Cl)ncc2OC)c(C(=O)Nc2nnc(C#CC3CC3)s2)cc1=O` [Compound 104], 0.31 nM corresponded to half-maximal inhibition (IC50). For `COc1cnc(Cl)cc1-c1cn(CC(N)=O)c(=O)cc1C(=O)Nc1nnc(C#CC2CC2)s1` [Compound 105], the IC50 came out at 0.47 nM. `Cc1cc(C#Cc2nnc(NC(=O)c3ccncc3-c3cc(Cl)ncc3OC(F)F)s2)n[nH]1` [Compound 106] showed an IC50 of less than 0.25 nM. Next, `COc1cnc(Cl)cc1-c1cn(C)c(=O)cc1C(=O)Nc1nnc(C#CC2CC23CC3)s1` (stereo not shown) [Compound 107]: 0.76 nM; `COc1cnc(C(F)F)cc1-c1cc(N2CCOCC2=O)ccc1C(=O)Nc1nnc(C#CC2CC2)s1` [Compound 108, N-(5-(cyclopropylethynyl)-1,3,4-thiadiazol-2-yl)-2-(2-(difluoromethyl)-5-methoxypyridin-4-yl)-4-(3-oxomorpholino)benzamide]: less than 0.25 nM. In turn, `COc1cnc(C(F)F)cc1-c1cc(N2CCN(C)CC2=O)ccc1C(=O)Nc1nnc(C#CC2CC2)s1` [Compound 109, N-(5-(cyclopropylethynyl)-1,3,4-thiadiazol-2-yl)-2-(2-(difluoromethyl)-5-methoxypyridin-4-yl)-4-(4-methyl-2-oxopiperazin-1-yl)benzamide] yielded an IC50 of less than 0.25 nM. As for `COc1cnc(C(F)F)cc1-c1cc(N2CCOCC2=O)ncc1C(=O)Nc1nnc(C#CC2CC2)s1` [Compound 110, N-(5-(cyclopropylethynyl)-1,3,4-thiadiazol-2-yl)-2′-(difluoromethyl)-5′-methoxy-6-(3-oxomorpholino)-[4,4′-bipyridine]-3-carboxamide], the IC50 is less than 0.25 nM.

For `COc1cnc(C(F)F)cc1-c1cc(-c2nnc(C)o2)ccc1C(=O)Nc1nnc(C#CC2CC2)s1` [Compound 111, N-(5-(cyclopropylethynyl)-1,3,4-thiadiazol-2-yl)-2-(2-(difluoromethyl)-5-methoxypyridin-4-yl)-4-(5-methyl-1,3,4-oxadiazol-2-yl)benzamide], the concentration for half-maximal inhibition (IC50) is 0.78 nM. The compound `COc1cnc(C(F)F)cc1-c1cc(CC#N)ccc1C(=O)Nc1nnc(C#CC2CC2)s1` [Compound 112, 4-(cyanomethyl)-N-(5-(cyclopropylethynyl)-1,3,4-thiadiazol-2-yl)-2-(2-(difluoromethyl)-5-methoxypyridin-4-yl)benzamide] returned an IC50 of less than 0.25 nM.

For the compound `COc1cnc(C(F)F)cc1-c1cc(-c2ccn(C)n2)ncc1C(=O)Nc1nnc(C#CC2CC2)s1` [Compound 113, N-(5-(cyclopropylethynyl)-1,3,4-thiadiazol-2-yl)-2′-(difluoromethyl)-5′-methoxy-6-(1-methyl-1H-pyrazol-3-yl)-[4,4′-bipyridine]-3-carboxamide], the IC50 was found to be 0.53 nM. Compound `Cc1nnc(Cn2cc(-c3cc(C(F)F)ccc3Cl)c(C(=O)Nc3ncc(C#CC4CC4)s3)cc2=O)o1` [Compound 114, 5-(2-chloro-5-(difluoromethyl)phenyl)-N-(5-(cyclopropylethynyl)thiazol-2-yl)-1-((5-methyl-1,3,4-oxadiazol-2-yl)methyl)-2-oxo-1,2-dihydropyridine-4-carboxamide] came in with an IC50 of 0.26 nM. To `Cc1nnc(Cn2cc(-c3cc(C(F)(F)F)ccc3Cl)c(C(=O)Nc3ncc(C#CC4CC4)s3)cc2=O)o1` [Compound 115, 5-(2-chloro-5-(trifluoromethyl)phenyl)-N-(5-(cyclopropylethynyl)thiazol-2-yl)-1-((5-methyl-1,3,4-oxadiazol-2-yl)methyl)-2-oxo-1,2-dihydropyridine-4-carboxamide] belongs less than 0.25 nM. Next, `COc1cnc(C(F)F)cc1-c1cc(-c2ccn(C)n2)ncc1C(=O)Nc1ncc(C#CC2CC2)s1` [Compound 117, N-(5-(cyclopropylethynyl)thiazol-2-yl)-2′-(difluoromethyl)-5′-methoxy-6-(1-methyl-1H-pyrazol-3-yl)-[4,4′-bipyridine]-3-carboxamide]: 2 nM.

`COc1cnc(C(F)F)cc1-c1cc(N(C)c2nnc(C)o2)ccc1C(=O)Nc1ncc(C#CC2CC2)s1` [Compound 119] returned an IC50 of 23 nM. The compound `COc1cnc(C(F)F)cc1-c1cc(-c2nnc(C)o2)ccc1C(=O)Nc1ncc(C#CC2CC2)s1` [Compound 120] had an IC50 of 2.5 nM. Consider `COc1cnc(C(F)F)cc1-c1cc(N2CCC(C)(O)CC2)ncc1C(=O)Nc1nnc(C#CC2CC2)s1` [Compound 121], for which the IC50 is 2 nM. In turn, `COc1cnc(C(F)F)cc1-c1cc(-n2ccccc2=O)ncc1C(=O)Nc1nnc(C#CC2CC2)s1` [Compound 122, N-(5-(cyclopropylethynyl)-1,3,4-thiadiazol-2-yl)-2″-(difluoromethyl)-5″-methoxy-2-oxo-2H-[1,2′:4′,4″-terpyridine]-5′-carboxamide] showed an IC50 of less than 0.25 nM.

With `COC(=O)N1CCN(c2ccc(C(=O)Nc3nnc(C#CC4CC4)s3)c(-c3cc(C(F)F)ncc3OC)c2)C(=O)C1` [Compound 123], the IC50 was less than 0.25 nM.

`COc1cnc(C(F)F)cc1-c1cc(-c2ccn(CS(C)(=O)=O)n2)ccc1C(=O)Nc1nnc(C#CC2CC2)s1` [Compound 124, N-(5-(cyclopropylethynyl)-1,3,4-thiadiazol-2-yl)-2-(2-(difluoromethyl)-5-methoxypyridin-4-yl)-4-(1-((methylsulfonyl)methyl)-1H-pyrazol-3-yl)benzamide] showed a half-maximal inhibitory concentration (IC50) of less than 0.25 nM. Regarding `COc1cnc(C(F)F)cc1-c1cc(N2CCC(n3ccnc3)CC2)ncc1C(=O)Nc1nnc(C#CC2CC2)s1` [Compound 125], half-maximal inhibition (IC50) was put at 21 nM. In other words, the double-digit nanomolar range.

In the case of `Cc1nnc(Cn2cc(-c3cc(C(F)F)ncc3C)c(C(=O)Nc3ncc(C#CC4CC4)s3)cc2=O)o1` [Compound 126], the IC50 was less than 0.25 nM. Next, `COc1cnc(C(F)F)cc1-c1cc(-c2ccnn2C)ncc1C(=O)Nc1nnc(C#CC2CC2)s1` [Compound 127]: less than 0.25 nM; `COc1cnc(C(F)F)cc1-c1cc(N2CCN(C)C(=O)C2)ncc1C(=O)Nc1nnc(C#CC2CC2)s1` [Compound 128]: 4 nM; `COc1cnc(C(F)F)cc1-c1cc(N2CC3(CC(C(=O)N(C)C)C3)C2)ncc1C(=O)Nc1nnc(C#CC2CC2)s1` [Compound 129]: 1.6 nM. `COc1cnc(C(F)F)cc1-c1cc(N2CC3(C2)CC(C)(O)C3)ncc1C(=O)Nc1nnc(C#CC2CC2)s1` [Compound 130, N-(5-(cyclopropylethynyl)-1,3,4-thiadiazol-2-yl)-2′-(difluoromethyl)-6-(6-hydroxy-6-methyl-2-azaspiro[3.3]heptan-2-yl)-5′-methoxy-[4 4′-bipyridine]-3-carboxamide] returned an IC50 of 2.1 nM.

`COc1cnc(C(F)F)cc1-c1cc(N2CCn3nccc3C2=O)ncc1C(=O)Nc1nnc(C#CC2CC2)s1` [Compound 133]: the IC50 was less than 0.25 nM. For `COc1cnc(C(F)F)cc1-c1cc(-c2cnn(CCO)c2)ccc1C(=O)Nc1nnc(C#CC2CC2)s1` [Compound 134], the IC50 is less than 0.25 nM.
